Reference: US20210277057A1, “AD[…]-OPIATE RECEPTOR PEPTIDE COMPOUNDS” (Cytogel Pharma, LLC, priority 2009, published 2021)
Structures can show the parent of a compound that is named as a salt.

Columns and labels:
rat = assay: standard rat tail flick assay; format: in vivo; conditions: suspension in 20% PEG
Experimental: The assay was the standard rat tail flick assay. Test agents were administered intravenously as suspensions in 20% PEG.

delta receptors = assay: binding to delta receptors relative to mu opiate receptor; conditions: delta versus mu opiate receptor
kappa receptors = assay: binding to kappa receptors relative to mu opiate receptor; conditions: kappa versus mu opiate receptor

NC(Cc1ccc(O)cc1)C(=O)NC1CCCCNC(=O)C(Cc2ccccc2)NC(=O)C(Cc2c[nH]c3ccccc23)NC1=O [CYT-1010 Acetate, H-Tyr-c-[D-Lys-Trp-Phe]] was tested. Which “Activity % MPE Ave” value (rat; IV dose 2 mg/kg, listed as Acetate, 2 mg/kg) did it give?
Its value is 50.0%.

And the “Activity % MPE Ave” value (rat; IV dose 4 mg/kg, listed as Acetate, 4 mg/kg)?
Its value is 83.3%.

NC(Cc1ccc(O)cc1)C(=O)NC1CCCCNC(=O)C(Cc2ccccc2)NC(=O)C(Cc2c[nH]c3ccccc23)NC1=O [CYT-1010 Aspartate, H-Tyr-c-[D-Lys-Trp-Phe]] was tested. Which “Activity % MPE Ave” value (rat; IV dose 2 mg/kg, listed as Aspartate, 2 mg/kg) did it give?
The value was 7.4%.

Which “Activity % MPE Ave” value (rat; IV dose 2 mg/kg, listed as Free Base, 2 mg/kg) does the source give for NC(Cc1ccc(O)cc1)C(=O)NC1CCCCNC(=O)C(Cc2ccccc2)NC(=O)C(Cc2c[nH]c3ccccc23)NC1=O [CYT-1010 Free Base, H-Tyr-c-[D-Lys-Trp-Phe]] here?
The value was 77.7%.

What about the “Activity % MPE Ave” value (rat; IV dose 4 mg/kg, listed as Free Base, 4 mg/kg) of the same molecule?
The value was 100.0%.

With NC(Cc1ccc(O)cc1)C(=O)NC1CCCCNC(=O)C(Cc2ccccc2)NC(=O)C(Cc2c[nH]c3ccccc23)NC1=O [CYT-1010 HCL, H-Tyr-c-[D-Lys-Trp-Phe]] as the molecule, how does the “Activity % MPE Ave” value (rat; IV dose 4 mg/kg, listed as HCL, 4 mg/kg) read?
The value was 0.0%.

NC(Cc1ccc(O)cc1)C(=O)NC1CCCCNC(=O)C(Cc2ccccc2)NC(=O)C(Cc2c[nH]c3ccccc23)NC1=O [CYT-1010 Lactate, H-Tyr-c-[D-Lys-Trp-Phe]] was tested. Which “Activity % MPE Ave” value (rat; IV dose 2 mg/kg, listed as Lactate, 2 mg/kg) did it give?
The value was 1.4%.

How did the “Activity % MPE Ave” value (rat; IV dose 4 mg/kg, listed as TFA, 4 mg/kg) turn out when NC(Cc1ccc(O)cc1)C(=O)NC1CCCCNC(=O)C(Cc2ccccc2)NC(=O)C(Cc2c[nH]c3ccccc23)NC1=O [CYT-1010 TFA, H-Tyr-c-[D-Lys-Trp-Phe]] was run?
The value was 25.4%.

What about the “Activity % MPE Ave” value (rat; IV dose 8 mg/kg) of the same molecule?
Its value is 71.2%.

Which results are given for H-Tyr-Pro-Trp-Phe-NH2 [SEQ ID NO:1]?
weaker binding to delta receptors (selectivity for mu opiate receptor) (delta receptors): over 4000 fold; weaker binding to kappa receptors (selectivity for mu opiate receptor) (kappa receptors): over 15,000 fold
